What was measured:
[1] = biological target: T1, urokinase from human kidney cells (human uPA) (Homo sapiens, UniProt P00749); test: uPA inhibition assay (fluorescence-based, purified enzyme); assay type: biochemical; conditions: for IC50: purified enzyme, Z-Gly-Gly-Arg-AMC substrate, number in parentheses after value, read-out: uPA IC50
T1 construct: low molecular weight active human uPA; purchased Sigma-Aldrich U4010; host or cells: human kidney cells

[2] = Cell viability (cytotoxicity) assay; assay type: cell-based; conditions: human, MDA-MB-231 cells, 48 h treatment
Protocol: On the day of treatment, respective compounds were serially diluted using a semi-logarithmic dilution series from 20 mM stocks in neat DMSO into DMEM-high glucose media (10% v/v FBS) in a separate 96-well plate and under sterile conditions. Thereafter, 10 μL of the diluted compounds at their respective concentrations (n = 4) were added to the cells. […] Vehicle media blanks or drug blanks were also included to correct for inherent colour of the compounds and phenol red-containing media. Following 48 h treatment, 20 μL CellTitre 96® Aqueous One Solution Cell Proliferation Assay (Promega, Madison, USA) was added to each well, plates were incubated for 2 h, and absorbance was measured at 490 nm using a SpectraMax Plus 384-well plate reader (Molecular Devices LLC, San Jose, USA) and Softmax PRO v7.0 software. Blank-corrected data were analysed and graphed using GraphPad PRISM v8.0 software (GraphPad Software, San Diego, CA USA).

[3] = biological target: T2, NHE1 (Homo sapiens, UniProt P19634); test: Plate-based NHE1 inhibition assay (BCECF pHi recovery, 96-well plate reader); assay type: cell-based; conditions: MDA-MB-231 cells, plate reader
T2 construct: endogenous in cells; host or cells: MDA-MB-231
T2 sequence (P19634 whole entry): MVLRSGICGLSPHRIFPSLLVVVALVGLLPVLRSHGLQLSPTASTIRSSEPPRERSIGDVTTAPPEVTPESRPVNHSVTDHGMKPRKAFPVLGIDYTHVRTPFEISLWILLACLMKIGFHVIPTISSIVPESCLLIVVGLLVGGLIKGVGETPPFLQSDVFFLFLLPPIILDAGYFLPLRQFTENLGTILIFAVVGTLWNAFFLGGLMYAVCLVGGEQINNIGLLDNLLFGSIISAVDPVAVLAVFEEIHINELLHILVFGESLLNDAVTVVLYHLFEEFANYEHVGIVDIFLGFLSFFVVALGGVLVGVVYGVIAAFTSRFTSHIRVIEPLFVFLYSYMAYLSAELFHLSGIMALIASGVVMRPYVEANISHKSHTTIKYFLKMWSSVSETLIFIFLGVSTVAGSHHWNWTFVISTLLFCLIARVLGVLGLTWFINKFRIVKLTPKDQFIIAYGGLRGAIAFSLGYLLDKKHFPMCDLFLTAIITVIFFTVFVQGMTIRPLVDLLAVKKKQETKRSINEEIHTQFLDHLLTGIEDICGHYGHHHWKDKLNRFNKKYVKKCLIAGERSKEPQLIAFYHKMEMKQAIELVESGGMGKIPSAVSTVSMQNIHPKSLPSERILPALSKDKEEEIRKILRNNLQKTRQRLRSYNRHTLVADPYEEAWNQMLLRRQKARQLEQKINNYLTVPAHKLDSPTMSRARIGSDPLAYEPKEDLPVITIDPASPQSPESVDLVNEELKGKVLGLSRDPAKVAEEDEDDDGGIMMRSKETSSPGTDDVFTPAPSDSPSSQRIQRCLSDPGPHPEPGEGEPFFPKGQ
Protocol: To perform NHE1 screening with increased throughput, we adapted the conventional cuvette-based NHE1 activity assay to a simple new 96-well plate format using MDA-MB-231 cells that were compatible with common laboratory fluorescence plate readers (see Section 4 for details).
Culture media were removed and replaced with 200 µL 0.2% FBS-containing media with incubation for 3–4 h to stimulate NHE1 activity, followed by incubation for 30 min in the presence of 5 µM 2′,7′-bis(carboxyethyl)-5(6)-carboxyfluorescein-acetoxymethyl ester (BCECF-AM, cat #ab143463, Abcam, Cambridge, United Kingdom). Cells were then washed with 100 µL/well Na^+-free acid-load buffer: 10 mM NH4Cl, 1.8 mM CaCl2, 90 mM N-methyl-D-glucamine (from 1 M stock titrated to pH 7.4 with HCl), 5 mM glucose, 15 mM HEPES, 5 mM KCl, 1 mM MgCl2 (pH 7.5, adjusted with KOH), and incubated at 37 °C for a further 30 min. Acid-load buffer was removed and replaced with Na^+-containing assay buffer: 100 mM NaCl, 1.8 mM CaCl2, 5 mM glucose, 15 mM HEPES, 5 mM KCl, 1 mM MgCl2 containing serial dilution of each compound or DMSO vehicle, and changes in fluorescence were read immediately using a BMG Labtech POLARstar OMEGA (BMG Labtech GmbH, Offenburg, Germany) plate reader according to the parameters in Table S1. Compounds were tested at n = 3 technical replicates per concentration per plate. BCECF-AM-free cells were treated with matched concentrations of each compound to correct for intrinsic fluorescence. DMSO was present in all wells at a final concentration of 1% v/v. Inhibition of NHE1-mediated pHi recovery was determined by ratiometric calculation of the change in blank-corrected pH-sensitive fluorescence divided by the isobestic fluorescence for each well over time. […] (0% activity) controls present on each plate. IC50 values were determined through fitting of Log-10 transformed data using the “log(inhibitor) versus normalised response–variable slope” non-linear function in GraphPad PRISM v8.0 software package (GraphPad Software, San Diego, CA, USA).

Row | IC50 [1] | inhibition at 1 µM [3] | inhibition at 10 µM [3] | higher uPA activity than its HMA congener 15 [1] | SMILES | IC50 at 48 h [2]
1 | 6.91 µM | 77% | 100% | – | N=C(N)NC(=O)c1nc(-c2ccc(C(F)(F)F)cc2)c(N2CCCCCC2)nc1N [compound 23] | 14.7 µM
2 | 0.797 ± 0.015 µM | 29% | 81% | – | N=C(N)NC(=O)c1nc(-c2cc3ccccc3o2)c(N2CCOCC2)nc1N [compound 36] | 36.7 µM
3 | 0.034 ± 0.005 µM | 0% | 11% | – | N=C(N)NC(=O)c1nc(-c2cnc(N)nc2)c(N2CCCCCC2)nc1N [compound 27] | > 100 µM
4 | 0.113 ± 0.004 µM | 0% | 81% | – | N=C(N)NC(=O)c1nc(-c2cc3ncccc3o2)c(N2CCCC2)nc1N [compound 38] | > 100 µM
5 | 0.038 µM | 2% | 100% | – | N=C(N)NC(=O)c1nc(-c2cc3ncccc3o2)c(N2CCCCCC2)nc1N [compound 21] | 43.1 µM
6 | 0.38 ± 0.01 µM | 0% | 90% | – | N=C(N)NC(=O)c1nc(-c2cc3cc(F)cc(F)c3o2)c(N2CCCCCC2)nc1N [compound 17] | 8.8 µM
7 | 1.69 µM | 34% | 91% | – | COc1ccc2oc(-c3nc(C(=O)NC(=N)N)c(N)nc3N3CCCCCC3)cc2c1 [compound 15] | 25.1 µM
8 | 0.453 µM | 0% | 31% | – | N=C(N)NC(=O)c1nc(-c2cc3ncccc3o2)c(N)nc1N [compound 20] | > 100 µM
9 | 0.546 ± 0.024 µM | 18% | 85% | – | N=C(N)NC(=O)c1nc(-c2cc3ccccc3o2)c(N2CCCC2)nc1N [compound 31] | 22.7 µM
10 | 0.187 ± 0.017 µM | 22% | 100% | – | N=C(N)NC(=O)c1nc(-c2cc3cc(F)ccc3o2)c(N2CCCCCC2)nc1N [compound 9] | 9.6 µM
11 | 0.149 ± 0.017 µM | 55% | 96% | – | N=C(N)NC(=O)c1nc(-c2cc3ccccc3o2)c(N2CCCOCC2)nc1N [compound 37] | 54 µM

Further lines, the compound ahead of its results:

Row | SMILES | IC50 [1] | inhibition at 1 µM [3] | inhibition at 10 µM [3] | higher uPA activity than its HMA congener 15 [1] | IC50 at 48 h [2]
12 | COc1ccc2oc(-c3nc(C(=O)NC(=N)N)c(N)nc3N)cc2c1 [compound 14] | 0.467 ± 0.022 µM | 4% | 36% | > 3 fold | > 100 µM
13 | N=C(N)NC(=O)c1nc(I)c(N)nc1N [compound 3] | 1.58 µM | 36% | 86% | – | > 100 µM
14 | COc1ncc(-c2nc(C(=O)NC(=N)N)c(N)nc2N)cn1 [compound 25] | 0.333 ± 0.022 µM | 0% | 18% | – | > 100 µM
15 | N=C(N)NC(=O)c1nc(-c2cc3cnccc3o2)c(N)nc1N [compound 18] | 1.01 µM | – | – | – | 26.4 µM
16 | Cc1ccc2oc(-c3nc(C(=O)NC(=N)N)c(N)nc3N)cc2c1 [compound 6] | 1.05 µM | 0% | 71% | – | 11.7 µM
17 | N=C(N)NC(=O)c1nc(-c2cc3cc(Cl)ccc3o2)c(N)nc1N [compound 10] | 0.94 ± 0.059 µM | 0% | 62% | – | 4.4 µM
18 | N=C(N)NC(=O)c1nc(-c2cc3ccccc3o2)c(NC2CCCC2)nc1N [compound 34] | 5.87 µM | 0% | 0% | – | 6.2 µM
19 | N=C(N)NC(=O)c1nc(-c2cncnc2)c(N2CCCOCC2)nc1N [compound 42] | 0.78 ± 0.033 µM | 39% | 96% | – | > 100 µM
20 | N=C(N)NC(=O)c1nc(-c2ccc(C(F)(F)F)cc2)c(N)nc1N [compound 22] | 5.1 µM | – | – | – | 82.4 µM
